In patent publication US11160788B2, “Caspase-1 inhibition and uses thereof for prevention and treatment of neurological conditions” (priority 2016, dated 2021):
“Also recorded” adds a separate entry of the source.

Tests used:
[1] = test system: J20 mice; assay: Barnes maze spatial memory, treatment of symptomatic J20 mice; format: in vivo, mouse
Description: FIG. 8: VX-765 treatment restores cognitive function in J20 mice. (a) Experimental paradigm. Intraperitoneal vehicle-injected wild type (WT+Vehicle; n=13) and J20 mice (J20+Vehicle: n=9), and VX-765-injected J20 mice (J20+VX-765: n=9) mice were behaviourally assessed at 5 different time-points: baseline before treatment (baseline untreated J20 were grouped together; n=18), after 3 IP injections/wk of VX-765 or vehicle (Treatment 1), after 6 additional injections over 2 weeks (Treatment 2), after 4-week Washout period, and after an additional 3 injections in one week (Treatment 3). Mice were sacrificed at 8 months of age after Treatment 3 (b) NOR Discrimination index (Treatment main effect, F(2,20)=85.8, p<0.0001; Time main effect, F(4,80)=4.188, p=0.0039; Treatment×Time interaction, F(8,80)=[…], two-way repeated-measures ANOVA, Dunnett's post-hoc compared to J20+Vehicle). (c) Distance traveled during Open Field task. Data analyzed by repeated measures two-way ANOVA (Treatment main effect, F(2,19)=11.47, p=0.0005; Treatment×Time interaction, F(8,76)=5.69, p<0.0001, two-way repeated-measures ANOVA, Dunnett's post-hoc compared to J20+Vehicle). (d-i) Barnes maze analysis. Learning acquisition (d,g), probe test primary latency and errors (e,h), and target hole preference (f,i); # of pokes of each hole labelled +1 to +9 to the right or −1 to −9 to the left of the target hole during the probe) after Treatment 2 (d-f) and Washout (g-i). Probe tests were analyzed (Treatment 2 primary latency, F(2,52)=5.879, p=0.0050; Treatment 2 primary errors, F(2,52)=9.998, p=0.0002; Washout primary latency, F(2,22)=4.076, p=0.0312; Washout primary errors, F(2,22)=10.84, p=0.0005, ANOVA, Tukey's post-hoc). * p<0.05, ***p<0.001, ****p<0.0001.
FIG. 9: VX-765 dose-dependently restores cognitive function in J20 mice. (a) NOR discrimination index after VX-765 dose response at Treatment 1 (F(3,24)=20.42, p<0.0001, ANOVA, Dunnett's post-hoc compared to J20 0 mg/kg), Treatment 2 (F(3,23)=12.83, p<0.0001, ANOVA, Dunnett's post-hoc compared to J20 0 mg/kg), Washout, and Treatment 3 (F(3,23)=8.828, p=0.0004, ANOVA, Dunnett's post-hoc compared to J20 0 mg/kg). Note that the 50 mg/kg dose was not performed at the same time and is placed here for comparison purposes only. Nevertheless, the discrimination index was stable between experiments (b-g) Barnes maze Treatment 2 (b-d) and Washout (e-g) learning acquisition (b,e), probe test (c,f), and target hole preference (d,g). For T2 primary errors, F(2,14)=5.69, p=0.0155, ANOVA, Dunnett's post-hoc compared to J20+Vehicle. * p<0.05, ***p<0.001, ****p<0.0001.
Anxiety and hyperactivity are monitored in an open-field paradigm, episodic memory with the NOR, spatial memory with the Barnes maze, and short or long term working memory with the Y maze before and after treatments. Repeated measures are acceptable for the NOR, Barnes and Y maze^2-4.
Five month old mice were behaviorally and longitudinally assessed before treatment (baseline), after 3 injections/week of 50 mg/kg VX-765 (Treatment 1; T1), after an additional 2 weeks of injections (Treatment 2; T2), after 4 weeks without treatment (Washout; WO), and after 3 more injections/week (Treatment 3; T3) before sacrificing the mice at 8 months of age as illustrated in FIG. 8a. […] Results were consistent across individual mice (FIG. 15c). […] However, during the probe test, the primary latency, primary errors (FIG. 8e) and the ability to find the target (T) escape hatch (FIG. 8f) were clearly impaired in vehicle-injected J20 compared to WT littermates. […] After WO, all mice performed well during the training phase of the Barnes maze (FIG. 8g). […] J20 mice performance in the Y maze working memory task was consistently low but not always statistically different from WT or treated J20 mice (FIG. 15e).

[2] = test system: serum deprived human primary neurons; assay: Neuritic beading in serum-deprived human primary neurons; format: cell-based
Method: FIG. 13: VX-765 protects CNS primary human neurons (HPN) against APP- or serum deprivation-mediated neuritic beading. (a) MTT assay with increasing dose of VX-765. (b) Fluorescent micrographs showing homogeneous distribution of EGFP in normal neurons and neuritic beading in APP-transfected neurons. (c) Percentage beading in APP-transfected or serum-deprived neurons treated 1 h before and continuously with stressor (Pre-treatment) or 48 h after stressor (post-beading treatment) with 25 or 50 μM VX-765 or with 5 μM Z-YVAD-fmk Casp1 peptide inhibitor. […] (d-e) HPN secreted or cellular Aβ42/total Aβ38+40+42 (d) (F(3,4)=12.73, p=0.0163, ANOVA, Dunnett's post-hoc compared to Serum+DMSO, *p<0.05), and (e) levels of secreted II-1β, IFN-γ, TNF-α, and II-6 from untreated (+S), serum deprived (−S), or serum-deprived human neurons treated with 25 or 50 μM VX-765.
EGFP-labeled human primary neurons were either APP^WT transfected or serum deprived. Two treatment strategies were employed to determine VX-765's effects on neuronal degeneration: our Pre-Treatment strategy looked at whether VX-765 could block neuronal degeneration when administered 1 hr prior to APP^WT transfection or serum deprivation, while our Reversal Treatment strategy looked at whether VX-765 could reverse degenerative effects when administered 48 hrs after APP^WT transfection or serum deprivation. Neurons displaying beaded morphology were counted with live imaging and measured as a percentage of the total number of eGFP+ neurons from 24-72 hrs after treatment. The irreversible caspase-1 inhibitor YVAD-fmk was used as positive control in our experiments. Results were obtained from averaging counts for at least 100 eGFP+ neurons per experiment in three independent neuron preparations.

## CCO[C@@H]1OC(=O)C[C@@H]1NC(=O)[C@@H]1CCCN1C(=O)[C@@H](NC(=O)c1ccc(N)c(Cl)c1)C(C)(C)C [VX-765, (S)-1-((S)-2-{[1-(4-amino-3-chloro-phenyl)-methanoyl]-amino}-3,3-dimethyl-butanoyl)-pyrrolidine-2-carboxylic acid ((2R,3S)-2-ethoxy-5-oxo-tetrahydro-furan-3-yl)-amide]
[1]; 10 mg/kg, after Treatment 2
  Barnes maze ability to recognize the escape hatch in probe test: improved in their ability to recognize the escape hatch
  Barnes maze primary latency: remained impaired in primary latency
[1]; 10 mg/kg, after washout
  Barnes maze primary latency and errors: No significant difference
[1]; 25 mg/kg, after Treatment 2
  Barnes maze ability to recognize the escape hatch in probe test: improved in their ability to recognize the escape hatch
  Barnes maze primary errors: decreased
  Barnes maze primary latency: remained impaired in primary latency
[1]; 25 mg/kg, after washout
  Barnes maze primary latency and errors: No significant difference
  Barnes maze recognition of the position of the escape hatch: retained the ability to recognize the position of the escape hatch
[1]; 50 mg/kg IP, after Treatment 2
  Barnes maze probe test: primary latency, primary errors, finding target hatch: eliminated these spatial memory deficits
[1]; 50 mg/kg IP, after washout
  Barnes maze ability to find the target hatch: performed better than vehicle-injected J20 mice
  Barnes maze probe test primary latency and errors: appeared normal in primary latency and errors
[2]; pre-treatment 1 h before serum deprivation
  neuritic beading: particularly effective in reducing neuritic beading at 72 hrs; also recorded: protected against, albeit less strongly
[2]; reversal treatment 48 hrs after serum deprivation
  neuritic beading: neither YVAD nor VX-765 were able to reverse neuritic beading
